Source: US20170020838A1, “TREATMENT FOR RESPIRATORY DISEASE” (MUCOKINETICA LIMITED, priority 2014, published 2017)

Tested on: ciliary transport of pig airway mucus secretions on the ex vivo pig trachea
Experiment: Ciliary transport of mucus secretions (tracheal mucus velocity) on ex vivo normal pig trachea
Settings: for first time point where increased ciliary transport is observed (class summary): Classes 2 and 3, after application of the treatment; for first time point with increased ciliary transport compared to BSS controls: applied 10 min in BSS: 10^−4 M amiloride, +50 mM-NaCl, 100 mosM-mannitol, 100 mosM-sodium gluconate, combinations with 10^−5M Rx; for first time point with increased ciliary transport compared to BSS controls / time of maximum transport speed following initiation of treatment: 0.1 mM UTP; for onset and duration profile of increased ciliary transport of secretions: normal pig trachea, single 10 min treatment; for class of ciliary transport enhancer: three classes of ENaC regulating substances
Protocol: The lumen of each trachea was cleaned by gentle irrigation with BSS. Tracheas were opened longitudinally with scissors along the posterior aspect and mounted with the posterior aspect upwards in a moist air-tight box. An aliquot of pig airway mucus approximately 3 mm diameter was placed on the mucosal surface close to the distal end of each trachea. Tracheal mucus velocity (TMV mm/min) was measured by recording the distance moved, towards the laryngeal end of the trachea, in a given time. At the start of the study three measurements of TMV were made for each trachea to establish a baseline rate for the trachea. Solutions were then pipetted onto the luminal mucosal surface of tracheas for 10 min; BSS control tracheas (open circles; n=6); 10^−4 M amiloride in BSS (closed squares; n=6). Excess solution was then tipped off the mucosal surface and measurement of TMV repeated. TMV results at each time point are expressed as % of the baseline TMV, ciliary transport index (mean±SD).
Pig tracheas (from larynx to carina) from normal wild type animals were obtained from a local abattoir or Veterinary University. Transgenic CF piglets were produced as described by Klymiuk et al. 2012, and tracheas were obtained at a Veterinary University. The lumen of each trachea was cleaned by gentle irrigation with BSS. Tracheas were opened longitudinally with scissors along the posterior aspect and mounted with the posterior aspect upwards in a moist air-tight box. An aliquot of pig airway mucus approximately 3 mm diameter was placed on the mucosal surface close to the distal end of each trachea. Tracheal mucus velocity (TMV mm/min) was measured by recording the distance moved, towards the laryngeal end of the trachea, in a given time. At the start of a study three measurements of TMV were made for each trachea to establish a baseline rate for the trachea. Solutions were then pipetted onto the luminal mucosal surface of tracheas for 10 min. Then excess solution was tipped off the mucosal surface and measurement of TMV repeated. TMV results at each time point are expressed as % of the baseline TMV, ciliary transport index (mean±SD).

O=C([O-])[C@H](O)[C@@H](O)[C@H](O)[C@H](O)CO.[Na+] [hyperosmotic sodium gluconate, sodium gluconate]
first time point where increased ciliary transport is observed (class summary): 25 min
first time point with increased ciliary transport compared to BSS controls: 25 min
onset and duration profile of increased ciliary transport of secretions: medium-onset medium duration
class of ciliary transport enhancer: Medium onset—medium duration

OC[C@@H](O)[C@@H](O)[C@H](O)[C@H](O)CO [hyperosmotic mannitol, mannitol]
first time point where increased ciliary transport is observed (class summary): 25 min
first time point with increased ciliary transport compared to BSS controls: 25 min
onset and duration profile of increased ciliary transport of secretions: medium-onset medium duration
class of ciliary transport enhancer: Medium onset—medium duration

O=c1ccn([C@@H]2O[C@H](COP(=O)(O)OP(=O)(O)OP(=O)(O)O)[C@@H](O)[C@H]2O)c(=O)[nH]1 [UTP, uridine 5′-triphosphate]
time of maximum transport speed following initiation of treatment (10^−4 M amiloride): 55 min
first time point where increased ciliary transport is observed (class summary): 25 min
first time point with increased ciliary transport compared to BSS controls: 25 min
onset and duration profile of increased ciliary transport of secretions: medium-onset medium duration
class of ciliary transport enhancer: Medium onset—medium duration

N=C(N)NC(=O)c1nc(Cl)c(N)nc1N [amiloride]
difference from BSS control tracheas at 40 min, 55 min and 1 h 10 min (10^−4 M amiloride): no significant difference
duration of stimulation of ciliary transport (10^−4 M amiloride): less than 1 h
time by which transport speed returned to control levels (10^−4 M amiloride): ≤ 40 min
stimulated ciliary transport through to (last time point) (10^−4 M amiloride in BSS applied 10 min): 35 min
time of maximum transport speed following initiation of treatment (10^−4 M amiloride): 25 min
onset of increased ciliary transport of secretions (class summary) (Class 1): immediate
return to control transport rate (class summary) (Class 1): ≤ 40 min
peak increase in the rate of ciliary transport (class summary) (Classes 1 to 3 of ciliary transport enhancers): 30%
first time point with increased ciliary transport compared to BSS controls: 10 min
onset and duration profile of increased ciliary transport of secretions: rapid onset and of short duration
class of ciliary transport enhancer: Rapid onset—short duration

N=C(N)Nc1ccc(C(=O)Oc2ccc3cc(C(=N)N)ccc3c2)cc1 [6-amidino-2-napthyl 4-guanidinobenzoate]
ciliary transport speed at the first two time points (25 and 40 min) compared to BSS controls (10^−5M in BSS): no increase in speed
ciliary transport at 24 h following exposure to the treatment (class summary) (Class 3): continues to exceed control transport rate
first time point where increased ciliary transport is observed (class summary): 55 min
dose of maximum increase in ciliary transport (at 3 h 40 min, tested 10^−9 M to 10^−5 M): 10^−6 M
onset and duration profile of increased ciliary transport of secretions: slow-onset long duration
class of ciliary transport enhancer: Slow onset—long duration
